Like-named read-outs stand apart in the source and are kept apart here.
How the values were obtained:
Test in all cases: In vitro cytotoxicity of camptothecin analogues (CellTiter-Glo)
Type in all cases: cell-based
[1] = test system: MDA-MB-468 (breast cancer); details: Homo sapiens, MDA-MB-468, 96 h, read-out: pIC50 MDA-MB-468 (converted)
Description: (§1) Cytotoxicity of the camptothecin analogues was assessed in vitro as follows.
(§2) In vitro potency was assessed on multiple cancer cell lines: SK-BR-3 (breast cancer), SKOV-3 (ovarian cancer), Calu-3 (lung cancer), ZR-75-1 (breast cancer) and MDA-MB-468 (breast cancer). Serial dilutions of camptothecin analogues were prepared in RPMI 1640+10% FBS, and 20 μL of each dilution was added to 384-well plates. Cells cultured in log-phase growth were detached by brief incubation in 0.05% Trypsin and resuspended in respective culturing media at 20,000 cells/mL (with the exception of ZR-75 cells, which were resuspended at 10,000 cells/mL). 50 μL of cell suspension was then added to the plates containing test articles. Cells were incubated with test articles for 4 d at 37° C. (with the exception of ZR-75 cells, which were incubated for 5 d). Growth inhibition was assessed by CellTiter-Glo® (Promega Corporation, Madison, WI) and luminescence was measured on a plate reader. IC50 values were determined by GraphPad Prism (GraphPad Software, San Diego CA).

[2] = test system: Calu-3 (lung cancer); details: Homo sapiens, Calu-3, 96 h, read-out: pIC50 Calu-3 (converted)
Description: as §1, §2

[3] = test system: SKOV-3 (ovarian cancer); details: Homo sapiens, SK-OV-3, 96 h, read-out: pIC50 SKOV-3 (converted)
Description: as §1, §2

[4] = test system: SK-BR-3 (breast cancer); details: Homo sapiens, SK-BR-3, 96 h, read-out: pIC50 SKBR-3 (converted)
Description: as §1, §2

[5] = test system: ZR-75-1 (breast cancer); details: Homo sapiens, ZR-75-1, 120 h, read-out: pIC50 ZR-75 (converted)
Description: as §1, §2

| Compound | IC50 [1] [nM] | IC50 [2] [nM] | IC50 [3] [nM] | IC50 [4] [nM] | IC50 [5] [nM] | IC50 ([1]; 4 d incubation) [nM] | IC50 ([2]; 4 d incubation) [nM] | IC50 ([3]; 4 d incubation) [nM] | IC50 ([4]; 4 d incubation) [nM] | IC50 ([5]; 5 d incubation) [nM] |
| --- | --- | --- | --- | --- | --- | --- | --- | --- | --- | --- |
| CC[C@@]1(O)C(=O)OCc2c1cc1n(c2=O)Cc2c-1nc1cc(F)c(C)cc1c2CN1CCSCC1CO (stereo partly drawn) [Compound 114, (4S)-4-ethyl-8-fluoro-4-hydroxy-11-((3-(hydroxymethyl)thiomorpholino)methyl)-9-methyl-1,12-dihydro-14H-pyrano[3′,4′:6,7]indolizino[1,2-b]quinoline-3,14(4H)-dione] | 0.417 | 0.0933 | 0.178 | 0.107 |  |  |  |  |  |  |
| CC[C@@]1(O)C(=O)OCc2c1cc1n(c2=O)Cc2c-1nc1cc(F)c(OC)cc1c2CNC(=O)NCc1ccc(N)cc1 [Compound 135, (S)-1-(4-aminobenzyl)-3-((4-ethyl-8-fluoro-4-hydroxy-9-methoxy-3,14-dioxo-3,4,12,14-tetrahydro-1H-pyrano[3′,4′:6,7]indolizino[1,2-b]quinolin-11-yl)methyl)urea] | 10.7 |  |  | 12.3 | 13.2 |  |  |  |  |  |
| CC[C@@]1(O)C(=O)OCc2c1cc1n(c2=O)Cc2c-1nc1cc(F)c(C)cc1c2CN1CC2CC1(CO)CO2 (stereo partly drawn) [Compound 115, (4S)-4-ethyl-8-fluoro-4-hydroxy-11-((4-(hydroxymethyl)-2-oxa-5-azabicyclo[2.2.1]heptan-5-yl)methyl)-9-methyl-1,12-dihydro-14H-pyrano[3′,4′:6,7]indolizino[1,2-b]quinoline-3,14(4H)-dione] |  |  |  |  |  | 4.17 | 1.29 | 3.8 | 2.57 |  |
| CC[C@@]1(O)C(=O)OCc2c1cc1n(c2=O)Cc2c-1nc1cc(F)c(N)cc1c2CNC(C)=O [Compound 147, (S)—N-((9-amino-4-ethyl-8-fluoro-4-hydroxy-3,14-dioxo-3,4,12,14-tetrahydro-1H-pyrano[3′,4′:6,7]indolizino[1,2-b]quinolin-11-yl)methyl)acetamide] |  |  |  |  |  | 21.4 | 21.4 | 43.7 | 5.13 |  |
| CC[C@@]1(O)C(=O)OCc2c1cc1n(c2=O)Cc2c-1nc1cc(F)c(C)cc1c2CN1CCC(F)(F)C(CO)C1 (stereo partly drawn) [Compound 120, (4S)-11-((4,4-difluoro-3-(hydroxymethyl)piperidin-1-yl)methyl)-4-ethyl-8-fluoro-4-hydroxy-9-methyl-1,12-dihydro-14H-pyrano[3′,4′:6,7]indolizino[1,2-b]quinoline-3,14(4H)-dione] |  |  |  |  |  | 0.191 | 0.1 | 0.251 | 1.1 |  |
| CC[C@@]1(O)C(=O)OCc2c1cc1n(c2=O)Cc2c-1nc1cc(F)c(OC)cc1c2CN1CCN(C)CC1 [Compound 107, (S)-4-ethyl-8-fluoro-4-hydroxy-9-methoxy-11-((4-methylpiperazin-1-yl)methyl)-1,12-dihydro-14H-pyrano[3′,4′:6,7]indolizino[1,2-b]quinoline-3,14(4H)-dione] |  |  |  |  |  | 3.89 | 4.07 |  | 3.09 | 2.75 |
| CC[C@@]1(O)C(=O)OCc2c1cc1n(c2=O)Cc2c-1nc1cc(F)c(C)cc1c2CNS(=O)(=O)Cc1ccc([N+](=O)[O-])cc1 [Compound 124, (S)—N-((4-ethyl-8-fluoro-4-hydroxy-9-methyl-3,14-dioxo-3,4,12,14-tetrahydro-1H-pyrano[3′,4′:6,7]indolizino[1,2-b]quinolin-11-yl)methyl)-1-(4-nitrophenyl) methanesulfonamide] |  |  |  |  |  | 3.47 | 1.7 |  | 1.2 | 2.29 |
| CC[C@@]1(O)C(=O)OCc2c1cc1n(c2=O)Cc2c-1nc1cc(F)c(N)cc1c2CN1CCN(S(=O)(=O)c2ccccc2)CC1 [Compound 153, (S)-9-amino-4-ethyl-8-fluoro-4-hydroxy-11-((4-(phenylsulfonyl)piperazin-1-yl)methyl)-1,12-dihydro-14H-pyrano[3′,4′:6,7]indolizino[1,2-b]quinoline-3,14(4H)-dione] |  |  |  |  |  |  | 0.115 | 0.933 | 0.513 |  |
| CC[C@@]1(O)C(=O)OCc2c1cc1n(c2=O)Cc2c-1nc1cc(F)c(OC)cc1c2CNC(=O)NCCO [Compound 137, (S)-1-((4-ethyl-8-fluoro-4-hydroxy-9-methoxy-3,14-dioxo-3,4,12,14-tetrahydro-1H-pyrano[3′,4′:6,7]indolizino[1,2-b]quinolin-11-yl)methyl)-3-(2-hydroxyethyl)urea] |  |  |  |  |  | 28.2 | 63.1 |  | 17 | 18.6 |
| CC[C@@]1(O)C(=O)OCc2c1cc1n(c2=O)Cc2c-1nc1cc(F)c(C)cc1c2CN1CC(CO)C1 [Compound 119, (S)-4-ethyl-8-fluoro-4-hydroxy-11-((3-(hydroxymethyl)azetidin-1-yl)methyl)-9-methyl-1,12-dihydro-14H-pyrano[3′,4′:6,7]indolizino[1,2-b]quinoline-3,14(4H)-dione] |  |  |  |  |  | 2.75 | 1.17 | 3.72 | 4.17 |  |
| CC[C@@]1(O)C(=O)OCc2c1cc1n(c2=O)Cc2c-1nc1cc(F)c(C)cc1c2CN1CC(F)(CO)C1 [Compound 118, (S)-4-ethyl-8-fluoro-11-((3-fluoro-3-(hydroxymethyl)azetidin-1-yl)methyl)-4-hydroxy-9-methyl-1,12-dihydro-14H-pyrano[3′,4′:6,7]indolizino[1,2-b]quinoline-3,14(4H)-dione] |  |  |  |  |  | 1.86 | 0.933 | 1.45 | 1.51 |  |
| CC[C@@]1(O)C(=O)OCc2c1cc1n(c2=O)Cc2c-1nc1cc(F)c(N)cc1c2CN1CCCCC1 [Compound 148, (S)-9-amino-4-ethyl-8-fluoro-4-hydroxy-11-(piperidin-1-ylmethyl)-1,12-dihydro-14H-pyrano[3′,4′:6,7]indolizino[1,2-b]quinoline-3,14(4H)-dione] |  |  |  |  |  | 0.204 | 0.204 |  | 0.324 | 0.219 |
| CC[C@@]1(O)C(=O)OCc2c1cc1n(c2=O)Cc2c-1nc1cc(F)c(C)cc1c2CN1CCS(=O)(=O)CC1CO (stereo partly drawn) [Compound 116, (4S)-4-ethyl-8-fluoro-4-hydroxy-11-((3-(hydroxymethyl)-1,1-dioxidothiomorpholino)methyl)-9-methyl-1,12-dihydro-14H-pyrano[3′,4′:6,7]indolizino[1,2-b]quinoline-3,14(4H)-dione] |  |  |  |  |  | 9.33 | 0.794 | 12.6 | 7.08 |  |
| CC[C@@]1(O)C(=O)OCc2c1cc1n(c2=O)Cc2c-1nc1cc(F)c(C)cc1c2CN1C2CCC1(CO)CC2 [Compound 121, (S)-4-ethyl-8-fluoro-4-hydroxy-11-((1-(hydroxymethyl)-7-azabicyclo[2.2.1]heptan-7-yl)methyl)-9-methyl-1,12-dihydro-14H-pyrano[3′,4′:6,7]indolizino[1,2-b]quinoline-3,14(4H)-dione] | 0.269 | 0.145 | 0.195 | 0.148 |  |  |  |  |  |  |
| CC[C@@]1(O)C(=O)OCc2c1cc1n(c2=O)Cc2c-1nc1cc(F)c(OC)cc1c2CNS(=O)(=O)CCO [Compound 130, (S)—N-((4-ethyl-8-fluoro-4-hydroxy-9-methoxy-3,14-dioxo-3,4,12,14-tetrahydro-1H-pyrano[3′,4′:6,7]indolizino[1,2-b]quinolin-11-yl)methyl)-2-hydroxyethane-1-sulfonamide] |  |  |  |  |  | 6.46 | 1.66 | 24 | 14.8 |  |
| CC[C@@]1(O)C(=O)OCc2c1cc1n(c2=O)Cc2c-1nc1cc(F)c(C)cc1c2CN1CC2CC(C1)C2O (stereo partly drawn) [Compound 117, (4S)-4-ethyl-8-fluoro-4-hydroxy-11-((6-hydroxy-3-azabicyclo[3.1.1]heptan-3-yl)methyl)-9-methyl-1,12-dihydro-14H-pyrano[3′,4′:6,7]indolizino[1,2-b]quinoline-3,14(4H)-dione] |  |  |  |  |  | 0.468 | 0.162 | 0.17 | 0.0955 |  |
| CC[C@@]1(O)C(=O)OCc2c1cc1n(c2=O)Cc2c-1nc1cc(F)c(N)cc1c2CN=[N+]=[N-] [Compound 152, (S)-9-amino-11-(azidomethyl)-4-ethyl-8-fluoro-4-hydroxy-1,12-dihydro-14H-pyrano[3′,4′:6,7]indolizino[1,2-b]quinoline-3,14(4H)-dione] | 5.01 | 1.48 | 2.88 | 3.24 |  |  |  |  |  |  |
| CC[C@@]1(O)C(=O)OCc2c1cc1n(c2=O)Cc2c-1nc1cc(F)c(C)cc1c2CNS(N)(=O)=O [Compound 131, (S)—N-((4-ethyl-8-fluoro-4-hydroxy-9-methyl-3,14-dioxo-3,4,12,14-tetrahydro-1H-pyrano[3′,4′:6,7]indolizino[1,2-b]quinolin-11-yl)methyl)methanesulfamide] | 9.12 | 9.12 |  | 1.05 | 0.955 |  |  |  |  |  |
